Measurements taken from patent US20080039377A1, “Composition Comprising a Jnk Inhibitor and Cyclosporin” (Applied Research Systems ARS Holding N.V., priority 2004, published 2008).

System: model of global ischemia in gerbils
Test: Neuroprotective effect of a JNK inhibitor combined with cyclosporin in a model of global ischemia in gerbils
Format: in vivo
Conditions: for neuroprotective effects (hippocampal damage assessed by histology): compared to vehicle and to JNK inhibitor alone
Protocol: In Vivo Assay: Neuroprotective Effect of a JNK Inhibitor Combined with Cyclosporin in a Model of Global Ischemia in Gerbils
The following assay aims at determining the neuroprotective effect of the test compositions in a model of global ischemia in gerbils, in vivo.
A total of 73 gerbils (60-80 g; obtained from Elevage Janvier, France) were provided. 4 groups, each consisting of 6-36 animals were formed: • Group 1 (n=36): The animals were administered (ip) a dose of 10 ml/kg of vehicle. • Group 2 (n=6): The animals were administered (ip) a dose of 15 mg/kg of cyclosporine. • Group 3 (n=8): The animals were administered (ip) a dose of 60 or 40 mg/kg of a JNK inhibitor according to formula (I) or (II). • Group 4 (n=7-8): The animals were administered (ip) a dose of the test composition containing 60 or 40 mg/kg of a JNK inhibitor according to formula (I) or (II) together with 15 mg/kg cyclosporine.
Surgery. Gerbils weighting 60-80 g were anaesthetized with 4% isoflurane (Baxter, Volketswil, Switzerland) in medical air, administered via facemask. The anaesthesia was then maintained using 3% isoflurane until the end of surgery. Bilateral common carotid arteries were dissected and occluded with bulldog clamps for 5 min.
Histology. Seven days after the onset of occlusion, the animals were killed by decapitation. The brains were frozen at −20° C. in 2-methylbutane and cut in 20 μm-thick sections in a cryocut (Microm HM 5000M, Walldorf, Germany). The sections were stained with cresyl violet acetate and the lesion in the hippocampus were scored within a 5-point scale: • Score 0: No loss of CA1 neurons; • Score 1: Weak damage of CA1 (CA1/Subiculum or CA1/CA3 border); • Score 2: Loss of CA1 neurons (<1/2); • Score 3: Loss of CA1 neurons (>1/2); and • Score 4: Total loss of CA1 neurons and expanding into other areas (CA3, Dentate gyrus, Cortex). The total score was obtained as the sum of scores in the right and left hemispheres.

N#CC(c1ccnc(NCCc2cccnc2)n1)c1nc2ccccc2s1 (centres unmarked) [Compound A, 1,3-benzothiazol-2-yl(2-{[2-(3-pyridinyl)ethyl]amino}-4-pyrimidinyl)acetonitrile]
neuroprotective effects (hippocampal damage assessed by histology) (JNK inhibitor 60 mg/kg ip with Cyclosporin 15 mg/kg ip): increases the neuroprotective effects | Histological score Mean ± SEM (Table I, Group 2: JNK inhibitor 0 mg/kg ip, Cyclosporine A 15 mg/kg ip, hippocampal lesion score (sum of both hemispheres, 0-4 each) 7 days after 5 min bilateral carotid occlusion): 6.0 ± 0.0 | Histological score Mean ± SEM (Table I, Group 3: JNK inhibitor 60 mg/kg ip, Cyclosporine A 0 mg/kg, hippocampal lesion score 7 days after occlusion): 3.6 ± 0.8 | Histological score Mean ± SEM (Table I, Group 4: JNK inhibitor 60 mg/kg ip together with Cyclosporine A 15 mg/kg ip, hippocampal lesion score 7 days after occlusion): 1.3 ± 0.6

CC#N.CCCCNC1CCN(S(=O)(=O)c2ccc(CNC(=O)c3ccc(Cl)cc3)s2)CC1 [Compound B, 4-chloro-N-[(5-{[4-(butylamino)piperidin-1-yl]sulfonyl}thien-2-yl)methyl]benzamide acetonitrile]
neuroprotective effects (hippocampal damage assessed by histology) (JNK inhibitor 40 mg/kg ip with Cyclosporin 15 mg/kg ip): increases the neuroprotective effects | Histological score Mean ± SEM (Table II, Group 2: JNK inhibitor 0 mg/kg ip, Cyclosporine A 15 mg/kg ip, hippocampal lesion score 7 days after occlusion): 6.0 ± 0.0 | Histological score Mean ± SEM (Table II, Group 3: JNK inhibitor 60 mg/kg ip, Cyclosporine A 0 mg/kg, hippocampal lesion score 7 days after occlusion): 5.3 ± 0.5 | Histological score Mean ± SEM (Table II, Group 4: JNK inhibitor 60 mg/kg ip together with Cyclosporine A 15 mg/kg ip, hippocampal lesion score 7 days after occlusion): 2.1 ± 0.6
